Biological target: human serum albumin (HSA) (Homo sapiens, UniProt P02768)
Test: fluorescent probe displaced from HSA by GdLx
Format: binding

Chain of human serum albumin (HSA) (P02768 25-609): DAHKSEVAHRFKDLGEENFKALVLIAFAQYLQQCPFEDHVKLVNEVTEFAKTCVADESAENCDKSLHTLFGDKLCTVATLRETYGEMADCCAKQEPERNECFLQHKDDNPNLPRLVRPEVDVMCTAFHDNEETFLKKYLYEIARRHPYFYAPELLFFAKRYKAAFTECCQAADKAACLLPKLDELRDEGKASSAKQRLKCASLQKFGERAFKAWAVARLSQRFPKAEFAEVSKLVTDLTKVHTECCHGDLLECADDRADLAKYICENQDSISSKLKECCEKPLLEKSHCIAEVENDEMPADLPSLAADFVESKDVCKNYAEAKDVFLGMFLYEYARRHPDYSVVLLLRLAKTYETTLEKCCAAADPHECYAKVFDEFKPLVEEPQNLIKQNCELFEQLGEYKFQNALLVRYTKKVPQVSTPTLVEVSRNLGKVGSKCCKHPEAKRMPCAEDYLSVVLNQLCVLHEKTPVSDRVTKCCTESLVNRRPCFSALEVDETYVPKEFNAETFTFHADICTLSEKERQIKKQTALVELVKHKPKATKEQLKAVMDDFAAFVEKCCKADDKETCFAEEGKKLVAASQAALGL

## CN(C)c1cccc2c(S(=O)(=O)NCC(=O)O)cccc12 [dansylglycine]
  fluorescent probe displaced from HSA by GdLx: Determined by displacement of fluorescent dansylglycine from HSA upon addition of GdLx
